The values below come from paper PMC5933457, “Probing biological activity through structural modelling of ligand-receptor interactions of 2,4-disubstituted thiazole retinoids” (Bioorganic & Medicinal Chemistry, 2018).

In test [1] the test system is TERA2.cl.SP12 embryonal carcinoma stem cells. The experiment in a line: Flow cytometry of cell-surface differentiation markers SSEA-3, TRA-1–60, A2B5. The test is classed as cell-based, human. To be noted: 10 μM retinoid, 7 days, compared to ATRA and control cultures, Fig. 7A. The source says: First, we examined neuronal differentiation in pluripotent TERA2.cl.SP12 human embryonal carcinoma stem cells in response to retinoid treatment. TERA2.cl.SP12 cells have been used in previous studies, [29] to test the ability of synthetic retinoids to induce differentiation along a neuronal or an alternative epithelial pathway at long in vitro timescales of up to three weeks. […] Since the parent carboxylic acid (GZ24) had little activity, the response to GZ22 was a real effect of the ester rather than a result of hydrolysis of the parent ester to the carboxylic acid.
The expression of specific cell surface protein markers (SSEA-3, TRA-1–60, A2B5) on TERA2.cl.SP12 was analyzed using flow cytometry as described previously.[53] Briefly, TERA2.cl.SP12 cells, 2 × 10^5 per 25 cm^2 flask, were seeded 12–24 h before treatment with 10 μM retinoid for 7 days. The primary antibodies used were SSEA-3 (diluted 1:10, University of Iowa Hybridoma Bank), TRA-1–60 (diluted 1:50, Abcam) and neural cell marker A2B5 (diluted 1:40, R&D Systems). Labeled cells were analyzed in a Guave EasyCyte Plus System (Millipore) flow cytometer and thresholds determining the numbers of positively expressing cells were set against the negative control antibody, P3X.

In test [2] the target is T1, RARβ ligand-binding domain (GST-RAR-β-LBD) (Homo sapiens, UniProt P10826).
T1 construct: purchased Invitrogen
T1 sequence (P10826 183-417 limits assumed): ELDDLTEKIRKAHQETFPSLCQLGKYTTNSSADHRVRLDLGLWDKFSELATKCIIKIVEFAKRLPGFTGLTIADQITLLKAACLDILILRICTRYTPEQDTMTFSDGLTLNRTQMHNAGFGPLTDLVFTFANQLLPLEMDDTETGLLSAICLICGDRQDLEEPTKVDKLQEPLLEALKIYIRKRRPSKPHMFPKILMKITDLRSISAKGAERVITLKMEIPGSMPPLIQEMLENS
The experiment in a line: LanthaScreen TR-FRET RARβ co-activator (receptor binding) assay. The test is classed as biochemical. To be noted: for EC50: estimated EC50, TR-FRET co-activator assay, 4 h incubation, read-out: EC50 (95% confidence range) RARβ; for binding-curve upper asymptote (coactivator recruitment), RARβ: in words, Fig. 6B. How it is done:
These predictions were tested through a receptor-binding assay for each RAR isotype (Fig. 6), where the assay signal is dependent on two parameters: the binding affinity of ligand to the RAR LBD, and the affinity of the coactivator for the ligand-LBD complex. For this assay, binding curves and variation in level of the upper asymptote can reflect differences in co-activator affinity for the ligand-LBD complex; variation in affinity of ligand for LBD shifts the midpoint (EC50) of the binding curve, whereas changes in the level of the upper asymptote may result from changes in coactivator affinity for the ligand-LBD complex alone, or in combination with changes in affinity for ligand with LBD.[23]
The binding interaction of each retinoid with RARα, β and γ were determined in vitro by time-resolved fluorescence resonance energy transfer (TR-FRET) using the LanthaScreen TR-FRET RARα, RARβ, and RARγ co-activator assays according to the manufacturer’s (Invitrogen™) instructions.[23] This uses a terbium-labeled anti-GST antibody, a fluorescein-labeled co activator peptide, and RARα/β/γ ligand-binding domains (LBD) that are tagged with glutathione-S-transferase (GST) in a homogenous assay format. All experiments were performed in black, 384-well low-volume plates in the dark at RT with a 4 h incubation time. The final assay volume was 20 μL and all dilutions were carried out using TR-FRET assay buffer, with a final DMSO concentration of 1%. A mixture of either 3.5 nM GST-RAR-α-LBD or 2.5 nM GST-RAR-β-LBD or 3 nM GST-RAR-γ-LBD with 62.5 nM Tb-anti GST antibody and 30 μM fluorescein-labeled peptide and retinoid or DMSO control was added to each of the wells. Each ligand assay was performed in duplicate and measured using a PHERAstar FS Microplate Reader (BMG Labtech, Ortenberg, Germany) with instrument settings as described in the manufacturer’s instructions for LanthaScreen assays. The TR-FRET signal was expressed as the ratio of the signals at 520 nm and 490 nm. The data were fitted to a three-parameter ligand-binding curve using SigmaPlot (version 12.5, Systat Software Inc., San Jose CA) and normalized to the lower asymptote of each binding curve. […] Since the assay involves interactions between ligand and LBD, and ligand-dependent interactions between the LBD and fluorescein-labeled co activator, the binding assay data were interpreted by simulating these coupled chemical reactions using the biochemical simulator COPASI version 4.3.[23], [54]
The readout of the Lanthascreen TR-FRET binding assay is based on a Forster resonance energy transfer (FRET) signal generated from the interaction between a terbium-labelled anti-glutathione-S-transferase (GST) antibody and a fluorescein-labelled coactivator peptide. The RAR ligand-binding domain (LBD) is a GST fusion protein and interaction between the LBD and the fluorescein-labelled coactivator peptide is driven by the binding of ligand to the LBD, and detected by the FRET signal from the terbium/fluorescein interaction when the terbium-labelled anti-GST binds the LBD fusion protein. The output of the assay thus relies on two binding interactions: ligand with LBD, and ligand-bound LBD with the coactivator peptide. As both interactions may be affected by the fit of ligand to the binding pocket of the LBD, we used the biochemical pathway simulator COPASI^1 to build a simple model of how the FRET signal output in the assay will vary according to differential changes in the kinetics of the two binding interactions. Reactions were modelled deterministically using mass-action kinetics described by ordinary differential equations (ODE) within COPASI.^1 This model enables us to assess the effect of different rate constants and varying ligand concentration on the formation of the final ternary complex that is the read-out from the Lanthascreen TR-FRET assay.

In the case of `CCOC(=O)c1ccc(-c2nc(-c3ccccc3)c(C)s2)cc1` [GZ22], the “proportion of cells expressing differentiation markers SSEA-3, TRA-1–60, A2B5” value in test [1] is recorded as “Intermediate responses”. Further, in test [2], the EC50 is 136 nM and the “binding-curve upper asymptote (coactivator recruitment), RARβ” value is reported as “high asymptote”.

As to `CCOCCOc1nc(-c2ccc(C(=O)O)cc2)sc1C` [GZ18], the “proportion of cells expressing differentiation markers SSEA-3, TRA-1–60, A2B5” value in test [1] is on record as “very little activity”. Besides, in test [2], the EC50 is 56.7 nM and the “binding-curve upper asymptote (coactivator recruitment), RARβ” value is “very low asymptotes”.

In the case of `Cc1sc(-c2ccc(C(=O)O)cc2)nc1-c1ccc2c(c1)C(C)(C)CCC2(C)C` [GZ25], the “proportion of cells expressing differentiation markers SSEA-3, TRA-1–60, A2B5” value in test [1] is on record as “most potent, even compared to ATRA”. Also, in test [2], the EC50 is 11 nM.

One may read the EC50 as the concentration giving half of the maximal effect.
